# Measured values taken from patent US7704971B2, “Uracil reductase inactivators” (SmithKlineBeecham Corporation, priority 1990, dated 2010).
# Where two headings read alike, the source gives them in different places. Marks after values point to notes of the source that are not given here.
# How the values were obtained:
# [1] = biological target: T1, Uracil reductase (dihydropyrimidine dehydrogenase, EC 1.3.1.2) (Bos taurus, UniProt Q28007); experiment: Determination of uracil reductase inactivation; assay type: biochemical, bovine; details: for relative first-order rate constants for inactivation of enzyme (parenthetical values): 50 micromol inactivator, fractional activity vs time of incubation; for inhibition at 100 µM: 0.5 h
# T1 construct: purified from bovine liver; from tissue; host or cells: bovine liver
# T1 sequence (Q28007 1-1025): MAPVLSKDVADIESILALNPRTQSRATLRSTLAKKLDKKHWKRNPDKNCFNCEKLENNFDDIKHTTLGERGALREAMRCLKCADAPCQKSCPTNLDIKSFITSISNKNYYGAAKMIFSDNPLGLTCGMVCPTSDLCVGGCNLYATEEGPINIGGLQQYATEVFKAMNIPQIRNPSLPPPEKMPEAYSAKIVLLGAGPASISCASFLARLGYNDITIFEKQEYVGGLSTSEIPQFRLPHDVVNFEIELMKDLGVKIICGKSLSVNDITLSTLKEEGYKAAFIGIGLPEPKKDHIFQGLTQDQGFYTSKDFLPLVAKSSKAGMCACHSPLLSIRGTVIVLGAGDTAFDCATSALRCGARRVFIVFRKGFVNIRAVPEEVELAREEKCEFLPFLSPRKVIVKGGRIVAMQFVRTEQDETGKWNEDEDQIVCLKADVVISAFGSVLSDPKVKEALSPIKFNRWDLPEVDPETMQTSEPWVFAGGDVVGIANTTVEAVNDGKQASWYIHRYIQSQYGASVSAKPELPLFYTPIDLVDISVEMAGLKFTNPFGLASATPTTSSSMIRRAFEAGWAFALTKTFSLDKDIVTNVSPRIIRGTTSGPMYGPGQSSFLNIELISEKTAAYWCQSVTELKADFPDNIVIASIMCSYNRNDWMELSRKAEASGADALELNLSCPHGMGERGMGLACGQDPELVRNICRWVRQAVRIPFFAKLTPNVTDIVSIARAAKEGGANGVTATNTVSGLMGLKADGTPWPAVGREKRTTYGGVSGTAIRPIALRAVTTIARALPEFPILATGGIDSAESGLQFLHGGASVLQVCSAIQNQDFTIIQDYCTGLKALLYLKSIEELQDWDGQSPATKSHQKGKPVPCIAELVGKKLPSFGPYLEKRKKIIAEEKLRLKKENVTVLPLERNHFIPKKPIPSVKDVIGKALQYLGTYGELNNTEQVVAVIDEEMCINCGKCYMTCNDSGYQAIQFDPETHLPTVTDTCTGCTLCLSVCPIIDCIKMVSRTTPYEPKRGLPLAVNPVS
# Procedure: Uracil reductase (1 micromolar) (dihydropyrimidine dehydrogenase, EC 1.3.1.2) purified from bovine liver was incubated with 100 micromolar inactivator and 5 mM dithiothreitol (enzyme reductant) at 37° for 30 minutes in 0.05 M Tris-HCl at pH 8.0. The enzyme and inactivator were diluted 100-fold into the assay buffer, which contained 200 micromolar NADPH, 200 micromolar thymine and 1 mM dithiothreitol in Tris-HCl at pH 8.0. The velocity of the enzyme was determined spectrophotometrically. These velocities have been corrected for NADPH oxidase activity, which was less than […] of the rate of thymine-dependent oxidation of NADPH. The % inactivation of the enzyme was equal to 100% minus the percent of enzymatic activity remaining. Enzyme incubated without inhibitor was stable under these conditions. Parenthetical values are the relative first-order rate constants for inactivation of enzyme determined from similar experiments where the fractional activity was measured as a function of the time of incubation of 50 micromol inactivator with enzyme.
# [2] = in vivo; cited from earlier work
# [3] = biological target: T2, dihydrothymidine dehydrogenase (Homo sapiens, UniProt Q12882); details: Cancer Research 46, 1094, 1986; cited from earlier work
# T2 sequence (Q12882 4-1025): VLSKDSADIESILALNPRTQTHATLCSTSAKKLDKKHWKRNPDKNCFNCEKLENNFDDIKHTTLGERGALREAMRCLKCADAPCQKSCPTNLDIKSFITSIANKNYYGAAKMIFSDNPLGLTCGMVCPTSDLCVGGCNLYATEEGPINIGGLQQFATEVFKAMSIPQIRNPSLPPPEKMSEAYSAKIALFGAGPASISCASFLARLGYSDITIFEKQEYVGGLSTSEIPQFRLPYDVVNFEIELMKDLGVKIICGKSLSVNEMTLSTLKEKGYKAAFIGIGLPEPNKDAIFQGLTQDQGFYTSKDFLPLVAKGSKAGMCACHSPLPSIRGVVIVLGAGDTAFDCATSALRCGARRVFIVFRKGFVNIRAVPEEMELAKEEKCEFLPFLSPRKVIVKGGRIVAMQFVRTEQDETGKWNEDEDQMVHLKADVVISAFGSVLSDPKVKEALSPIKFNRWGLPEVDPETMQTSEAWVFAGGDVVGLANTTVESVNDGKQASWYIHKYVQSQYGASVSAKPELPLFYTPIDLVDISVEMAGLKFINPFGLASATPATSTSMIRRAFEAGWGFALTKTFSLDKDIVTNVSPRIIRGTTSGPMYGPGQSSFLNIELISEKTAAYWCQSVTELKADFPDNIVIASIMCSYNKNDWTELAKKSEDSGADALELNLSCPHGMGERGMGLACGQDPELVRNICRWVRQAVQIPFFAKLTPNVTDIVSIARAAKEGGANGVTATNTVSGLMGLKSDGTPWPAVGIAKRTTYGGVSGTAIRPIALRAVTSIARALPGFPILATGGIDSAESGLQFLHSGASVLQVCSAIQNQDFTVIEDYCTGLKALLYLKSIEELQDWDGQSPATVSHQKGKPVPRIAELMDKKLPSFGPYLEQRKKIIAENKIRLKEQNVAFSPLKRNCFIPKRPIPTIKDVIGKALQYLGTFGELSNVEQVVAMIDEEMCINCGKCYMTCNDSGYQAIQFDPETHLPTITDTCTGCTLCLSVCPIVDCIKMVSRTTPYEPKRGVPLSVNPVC
# [4] = system: Colon 38 tumor; experiment: Potentiation of the antitumor activity of 5-FU by EU, Colon 38 tumor in mice; assay type: in vivo
# Procedure: Colon 38 tumor was implanted in mice on day zero. Mice (8 per group) were treated with 5-FU on days one through nine with the doses indicated in Table 2 EU was dosed i.p. at 2 mg/kg 30 minutes prior to 5-FU dosing where indicated.
# [5] = 100 micromolar inactivator, 1 micromolar enzyme, 5 mM dithiothreitol, 37° for 30 minutes, pH 8.0, read-out: % Inactivation
relative first-order rate constants for inactivation of enzyme (parenthetical values) [1],"inhibition at 100 µM [1, 5] [%]",SMILES,also measured
(5),100,C=C(Cl)c1c[nH]c(=O)[nH]c1=O [5-(1-chlorovinyl)uracil],–
(8),100,O=c1[nH]cc(C#CBr)c(=O)[nH]1 [5-bromoethynyluracil],–
–,–,O=c1[nH]cc(Br)c(=O)[nH]1 [5-bromouracil],"inhibition at 100 µM ([1]; pH 8, read-out: % Inactivation): 75%"
(14),100,N#Cc1c[nH]c(=O)[nH]c1=O [5-cyanouracil],–
–,90,CCCCC#Cc1c[nH]c(=O)[nH]c1=O [5-hex-1-ynyluracil],–
(8),100,"CC#Cc1c[nH]c(=O)[nH]c1=O [5-propynyluracil, 5-Propynyluracil]",melting point: 275 to 280 °C (dec.)
–,75,O=c1[nH]cc(C(F)(F)F)c(=O)[nH]1 [5-trifluoromethyluracil],–
–,86,C=Cc1c[nH]c(=O)[nH]c1=O [5-vinyluracil],–
–,–,"O=c1[nH]cc(C=CBr)c(=O)[nH]1 [BVU, 5-(2-bromovinyl)-uracil]",toxicity to humans [2]: toxic to humans; inhibition of dihydrothymidine dehydrogenase [3]: is an inhibitor
(4),100,"O=c1[nH]cc(I)c(=O)[nH]1 [Example 5-iodouracil, 5-iodouracil]",–
–,–,"O=c1[nH]cc(F)c(=O)[nH]1 [FU, 5-fluorouracil]","% Mice Tumor Free on Day 17 ([4]; 5-FU 10 mg/kg i.p. days 1-9, no EU): 0%; % Mice Tumor Free on Day 17 ([4]; 5-FU 10 mg/kg p.o. days 1-9, no EU): 0%; % Mice Tumor Free on Day 17 ([4]; 5-FU 15 mg/kg i.p. days 1-9, no EU): 12.5%; % Mice Tumor Free on Day 17 ([4]; 5-FU 15 mg/kg p.o. days 1-9, no EU): 12.5%; % Mice Tumor Free on Day 17 ([4]; 5-FU 20 mg/kg i.p. days 1-9, no EU): 12.5%; % Mice Tumor Free on Day 17 ([4]; 5-FU 20 mg/kg p.o. days 1-9, no EU): 12.5%; % Mice Tumor Free on Day 17 ([4]; 5-FU 25 mg/kg p.o. days 1-9, no EU): 12.5%; % Mice Tumor Free on Day 17 ([4]; 5-FU 30 mg/kg i.p. days 1-9, no EU): 87.5^a %; % Mice Tumor Free on Day 17 ([4]; 5-FU 30 mg/kg p.o. days 1-9, no EU): 12.5%"
